Laboratory results as given in PMC7827809, “Responses of the Pheromone-Binding Protein of the Silk Moth Bombyx mori on a Graphene Biosensor Match Binding Constants in Solution” (Sensors (Basel, Switzerland), 2021).
“Also recorded” adds a separate entry of the source. Like-named read-outs stand apart in the source and are kept apart here.

How the values were obtained:
[1] = molecular target: T1, BmorPBP1 (Bombyx mori pheromone-binding protein PBP1) (Bombyx mori, UniProt P34174); test: Fluorescence binding assay in solution (1-NPN titration and competitive displacement); details: for binding in solution (displacement of 1-NPN), in words: pH 7.4, protein and probe 2 μM
T1 construct: polyhistidine (his-tag, from pET15b) (N); made in house; host or cells: Escherichia coli
T1 sequence (P34174 23-164): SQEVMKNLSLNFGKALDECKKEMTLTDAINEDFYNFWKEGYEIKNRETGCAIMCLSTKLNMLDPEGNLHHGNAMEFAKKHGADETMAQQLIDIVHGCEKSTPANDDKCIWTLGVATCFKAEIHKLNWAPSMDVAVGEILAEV
Protocol: Dissociation constants were measured in solution along with the widely adopted fluorescence binding assay. Spectra were recorded on a PerkinElmer FL 6500 spectrofluorometer at room temperature in a right-angle configuration, with a 1-cm light path quartz cuvette and 5-nm slits for both excitation and emission.
First, the binding of BmorPBP1 to the fluorescent probe N-phenyl-1-naphthylamine (1-NPN) […] of 1-NPN in methanol to final concentrations of 2–16 μM. Excitation wavelength was 337 nm and intensity was recorded at the maximum of the emission peak, 408 nm. The affinities of other ligands were evaluated in competitive binding assays by titrating a solution of the protein and 1-NPN, both at the concentration of 2 μM, with aliquots of 1-mM methanol solutions of each chemical to final concentrations of 2–16 μM. The affinity to 1-NPN was calculated using Prism software. Dissociation constants of competing ligands were evaluated from the corresponding [IC]50 values (the concentration of each ligand halving the initial value of fluorescence), using the equation: Kd = [IC]50/1 + [1-NPN]/KNPN, where [1-NPN] is the concentration of free 1-NPN and KNPN the dissociation constant of the complex Protein/1-NPN.

[2] = molecular target: T2, BmorPBP1 immobilized on reduced graphene oxide field-effect transistor (Bombyx mori, UniProt P34174); test: BmorPBP1-functionalized rGO-FET biosensor (titration and kinetic runs, Langmuir model); format: binding
T2 construct: polyhistidine (his-tag, from pET15b) (N); made in house; host or cells: Escherichia coli
T2 sequence (P34174 23-164): T1 sequence (P34174 23-164)
Protocol: Reduced graphene oxide field-effect transistors (rGO-FET) were fabricated as previously described with a modified channel width of 30 µm. Electrical properties of the FET devices were tested along with the procedure. For the detection of different odorants, the rGO-based biosensors were functionalized with BmorPBP1. Briefly, for the attachment of the protein to the sensing area, the graphene surface was chemically modified with a bifunctional linker: a 10-μL droplet of a 10-μM 6-(4-(pyren-3-yl) butanamido)-2-(bis(carboxymethyl) amino) hexanoic acid solution was applied overnight to the rGO channel area, rinsed, incubated for 30 min with a 40-mM NiCl2 solution (pH 5.5, adjusted with KOH), rinsed, then incubated with 20 μL of a 10-μM protein solution, followed by a final rinse.
The evaluation of BmorPBP1 binding affinities to various odorants was performed under the following standardized conditions: electrical measurements were taken using a Keithley 4200 semiconductor characterization system. An Ag/AgCl reference electrode (Flex ref, World Precision Instruments) was used to operate the FET device in liquid gate configuration with a constant gate bias (Vg) of −0.6 V and a constant source-drain bias (VDS) of 0.05 V. A flow rate of the odorant solutions in the flow cell was set at 300 µL/min in order to minimize mass transfer limitations of the analytes to the sensor surface. […] Subsequently, the biosensor was titrated with different odorant concentrations (1 μM–4 mM) and the change in source–drain current (ΔIDS) was monitored in real time. Here, the lowest odorant concentration was injected first, and the odorant was allowed to interact with the surface immobilized BmorPBP1 to reach equilibrium, as indicated by a constant source–drain current. This process was repeated with odorant solutions of higher concentrations, until the surface was fully saturated with the target analyte, as indicated by a constant source–drain current (IDS). Surface titration experiments were terminated by a final washing step using pure buffer in order to dissociate the formed PBP1-odorant complex, resulting in almost complete restoration of the initial baseline current. […] For this reason, the drain current response curves were normalized by subtraction to the baseline current. Kinetic parameters, as well as the dissociation constant, Kd, of the above described titration experiments were analyzed using the Langmuir model.
With the electronic transducer directly coupled to a flow cell, one can perform titrations as well as kinetic measurements by online changing of the analyte solution (pure buffer, different analytes at different concentrations) flowing through the cell, while recording the sensor response, i.e., a change in the source–drain current, ΔIDS = IDS − IDSBaseline, in real time.
Earlier studies have given evidence that the underlying molecular mechanism of the recognition and binding of odorant analytes from solution to the surface-immobilized protein, BmorPBP1 in this case, can be well described by the Langmuir adsorption model: the sensor has a fixed number of binding sites on its surface, whose occupancy is measured by Θ, the coverage, ranging from 0 to 1. […] The Langmuir model describes this relation between the coverage, Θ, and the bulk analyte concentration, c0 , by Equation (1):(1) Θ(c0)=ΔIDS(c0)/ΔIDS(c∞)=c0/Kd/(1+c0/Kd)
Alternatively, with the flow cell attached, one can measure the kinetics of the sensor response, ΔIDS, after changing the concentration in the bulk to another value. For an increase of the bulk concentration this can be described in the Langmuir model by Equation (2):(2) Θ(t)=c0/Kd/(1+c0/Kd)·(1−e^−(konc0+koff)t)
Measuring this association of kinetics at different bulk concentrations then allows for the determination of the rate constants, kon and koff. […]

[3] = molecular target: T1, BmorPBP1 (Bombyx mori pheromone-binding protein PBP1); details: at concentrations of 7 μM ref 31; cited from earlier work
[4] = competitive displacement of 1-NPN, protein and probe 2 μM, 50 mM Tris-Cl pH 7.4, read-out: Solution Data Kd
[5] = immobilized protein, pH 8.0, kinetic runs, averaged results, read-out: Sensor Data Kd, Kinetics
[6] = immobilized protein, pH 8.0, Langmuir isotherm fit, read-out: Sensor Data Kd, Titration
[7] = Sensor Data Kd, Kinetics, immobilized protein, pH 8.0, kinetic runs, averaged results

SMILES	Kd [1, 4] [µM]	binding in solution (displacement of 1-NPN), in words [1]	Kd [2, 5] [µM]	sensor response (ΔIDS), in words ([2]; physiological pH / pH 8)	also measured
c1ccc(Nc2cccc3ccccc23)cc1 [1-NPN, N-phenyl-1-naphthylamine]					Kd [1]: 0.75 µM
C=CC(C)(O)CCC=C(C)C (centres unmarked) [Linalool, linalool]	~40	poor binding	> 1000	very weak responses	
COc1nccnc1CC(C)C [2-Isobutyl-3-methoxypyrazine, 2-isobutyl-3-methoxypyrazine]	> 100	poor binding	1300	very weak responses	Kd [2, 6]: 2800 µM
CCC/C=C\C=C\CCCCCCCCCO [Bombykol, bombykol]	0.94	strongest ligand	8.2		Kd ([1]; competitive displacement of 1-NPN, pH 4.0, read-out: Solution Data Kd): > 100 µM; binding in solution at pH 4, in words ([1]; pH 4): completely abolished; also recorded: failed to bind; displacement of the fluorescence probe 1-NPN, in words [3]: efficiently and similarly displace; Kd ([2]; immobilized protein, pH 4.0, read-out: Sensor Data Kd, Kinetics): > 1000 µM; Kd [2, 6]: 9.8 µM; sensor response (ΔIDS) at pH 4, in words ([2]; pH 4): failed to bind; also recorded: barely detectable; Kd ([2]; pH 8, single global analysis run of Figure 2A(I)/2C, read-out: kinetically-determined dissociation constant Kd (koff/kon)): 4.7 µM
CC(C)=CCC/C(C)=C/CO [Geraniol, geraniol]		poor binding		very weak responses	Kd [1]: ~20 µM; Kd [2, 7]: 470 µM
CCC/C=C\C=C\CCCCCCCCC=O [Bombykal, bombykal]	1.1	strongest ligand	7.4		displacement of the fluorescence probe 1-NPN, in words [3]: efficiently and similarly displace
C=CCc1ccc(O)c(OC)c1 [Eugenol, eugenol]	2.8	appreciable affinity		strong signal	Kd [2, 7]: 8.1 µM; Kd ([2]; Sensor Data Kd, Titration, immobilized protein, pH 8.0, Langmuir isotherm fit): 7.6 µM
CC(=O)OCCC(C)C [Isoamyl acetate, isoamyl acetate]	~20	poor binding	> 1000	does not give a significant response	sensor response (ΔIDS), in words ([2]; physiological pH / pH 8, listed as isoamyl acetate): very weak responses
